Results: patent US4281121A, “1,3,4-Thiadiazole-2-carboxylic acid derivatives, process for making the same and fungicidal and nematocidal compositions containing same” (Schering Aktiengesellschaft, priority 1978, dated 1981)
Where two headings read alike, the source gives them in different places.

Assays:
Pythium ultimum = experiment: Threshold concentration test for use of the compounds against Pythium ultimum (infested soil, garden peas); type: in vivo; design: key to root evaluation (1-4): 4: white roots without fungous necrosis; 3: white roots, minor fungous necrosis; 2: brown roots, already more pronounced fungous necrosis; 1: heavy fungous necrosis, roots rotted; conditions: for root evaluation (1-4): 3 weeks; for number of sound peas: 20 grains per dish, 3 weeks at 20-24° C.
Summary of the method: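 Garden pea seeds, 20 per dish, went straight into Pythium ultimum-infested soil into which 20% pulverulent formulations had been uniformly blended. Sound plants counted and roots rated 1–4 after three weeks of hothouse growth at 20–24 °C.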

Tilletia caries [1] = experiment: Treatment of oat seeds infested with Tilletia caries (spore germination); type: in vivo
Piricularia oryzae = type: in vivo; conditions: 5 days
[2] = system: Helminthosporium gramineum; experiment: Seed treatment in open field tests for infestation by Helminthosporium gramineum (barley); type: in vivo; conditions: summer barley, about 3 months
Protocol: Seed treatment in open field tests for infestation by Helminthosporium gramineum
The active agents were used in the form of pulverulent compositions. After about 8 months in case of winter barley and after about 3 months in case of summer barley the infested plants were counted and the activity was calculated by the formula [formula]

Septoria nodorum = experiment: Treatment of oat seeds against Septoria nodorum; type: in vivo; conditions: 50 g active agent/100 kg seeds; 4 weeks
Protocol: Effects of the treatment of oat seeds against Septoria nodorum
They were then seeded on a moist substrate for germination. As a control untreated seeds were likewise seeded. At about 6° C. the seed was incubated in an air-conditioned chamber until after 4 weeks the proportion of diseased seeds could be determined and the activity of the fungicidal compounds was calculated on the basis of the following formula: [formula]
The active agents were applied in the form of 20% concentration pulverulent compositions.

Helminthosporium gram = conditions: about 5 weeks
Protocol: Treatment of barley seeds infested with Helminthosporium gram
After emergence, the plants were subjected to illumination for 12 hours per day. After about 5 weeks the infested plants were counted and the total number of plants for each test were also counted. The active agents tested were used as pulverulent compositions.

Plasmopara viticola = experiment: Prophylactic leaf treatment of grapevines in the hothouse against Plasmopara viticola; type: in vivo
Summary of the method: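 Activity derived from average percentage of leaf surface infested per treatment. Plants with 5–8 leaves received preventive spray (20% spray powder formulation), then undersides inoculated with ~20,000 sporangia/ml; held at 22–24 °C with full humidity, reduced to 30–70% for 3–4 days, then saturated one day.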

Penicillium digitatum = experiment: Inhibition of fungus in a nutrient solution: Penicillium digitatum; type: cell-based; conditions: 6 days at 21-23° C.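 Note: 0 means no fungus growth and higher grades mean more surface covered.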
Botrytis cinerea = experiment: Inhibition of fungus in a nutrient solution: Botrytis cinerea; type: cell-based; conditions: 6 days at 21-23° C.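 Note: 0 means no fungus growth and higher grades mean more surface covered.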
Alternaria solani = experiment: Inhibition of fungus in a nutrient solution: Alternaria solani; type: cell-based; conditions: 6 days at 21-23° C.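 Note: 0 means no fungus growth and higher grades mean more surface covered.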
Fusarium avenaceum = experiment: Inhibition of fungus in a nutrient solution: Fusarium avenaceum; type: cell-based; conditions: 6 days at 21-23° C.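 Note: 0 means no fungus growth and higher grades mean more surface covered.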
Protocol: Inhibition of fungus in a nutrient solution
20 ml of a nutrient solution of grape juice and water (1:1) were filled into a glass vial of a 100 ml capacity and were mixed with the pulverulent active agents which appear from the subsequent table. Thereafter, the solution was inoculated with conidia (spores) of the test fungi.
After an incubation time of 6 days at 21° to 23° C. the fungus development on the surface of the nutrient solution was evaluated. The test fungi used were the following: Penicillium digitatum, Botrytis cinerea, Alternaria solani, Fusarium avenaceum.
The evaluation was carried out at a scale from 0 to 5 as follows: […]

Tilletia caries [3] = experiment: Seed treatment in open field tests regarding infestation by Tilletia caries (oats); type: in vivo; conditions: winter oats; 100 g active agent/100 kg; about 9 months
[4] = concentration of active agent 0.1 (percentages)
[5] = 25 g active agent/100 kg barley
[6] = 50 g active agent/100 kg barley
[7] = 100 g active agent/100 kg barley
[8] = concentration of active agent 0.025 (unit not given)

Compound: CCS(=O)(=O)c1nnc(C(=O)NCCOC)s1 [5-ethylsulfonyl-1,3,4-thiadiazole-2-carboxylic acid-(2-methoxyethyl)-amide]
- root evaluation (1-4) (Pythium ultimum; 20 mg/l soil): 1
- number of sound peas (Pythium ultimum; 20 mg/l soil): 13
- root evaluation (1-4) (Pythium ultimum; 40 mg/l soil): 4
- number of sound peas (Pythium ultimum; 40 mg/l soil): 16
- root evaluation (1-4) (Pythium ultimum; 80 mg/l soil): 4
- number of sound peas (Pythium ultimum; 80 mg/l soil): 16
- % activity (Tilletia caries [1]; 10 g active agent per 100 kg): 100%
- % activity (Tilletia caries [1]; 20 g active agent per 100 kg): 100%
- % activity (Tilletia caries [1]; 50 g active agent per 100 kg): 100%
- % activity (Piricularia oryzae; [4]): 90%
- % activity [2, 5]: 92%
- % activity [2, 6]: 98%
- % activity [2, 7]: 99.8%
- % activity (Septoria nodorum): 86%
- % activity (Helminthosporium gram; 10 g active agent per 100 kg): 100%
- % activity (Helminthosporium gram; 20 g active agent per 100 kg): 99%
- % activity (Helminthosporium gram; 50 g active agent per 100 kg): 100%

Compound: CCS(=O)(=O)c1nnc(C(=O)NCCCOC)s1 [5-ethylsulfonyl-1,3,4-thiadiazole-2-carboxylic acid-(3-methoxypropyl)-amide]
- root evaluation (1-4) (Pythium ultimum; 20 mg/l soil): 1
- number of sound peas (Pythium ultimum; 20 mg/l soil): 11
- root evaluation (1-4) (Pythium ultimum; 40 mg/l soil): 4
- number of sound peas (Pythium ultimum; 40 mg/l soil): 18
- root evaluation (1-4) (Pythium ultimum; 80 mg/l soil): 4
- number of sound peas (Pythium ultimum; 80 mg/l soil): 17
- % activity (Tilletia caries [1]; 10 g active agent per 100 kg): 100%
- % activity (Tilletia caries [1]; 20 g active agent per 100 kg): 100%
- % activity (Tilletia caries [1]; 50 g active agent per 100 kg): 100%
- % activity (Piricularia oryzae; [4]): 97%
- % activity [2, 5]: 94%
- % activity [2, 6]: 96%
- % activity [2, 7]: 100%
- % activity (Plasmopara viticola; [8]): 90%
- % activity (Septoria nodorum): 86%
- % activity (Helminthosporium gram; 10 g active agent per 100 kg): 99%
- % activity (Helminthosporium gram; 20 g active agent per 100 kg): 99%
- % activity (Helminthosporium gram; 50 g active agent per 100 kg): 100%

Compound: CCCCNC(=O)c1nnc(S(=O)(=O)CC)s1 [5-ethylsulfonyl-1,3,4-thiadiazole-2-carboxylic acid-butylamide]
- root evaluation (1-4) (Pythium ultimum; 20 mg/l soil): 1
- number of sound peas (Pythium ultimum; 20 mg/l soil): 8
- root evaluation (1-4) (Pythium ultimum; 40 mg/l soil): 4
- number of sound peas (Pythium ultimum; 40 mg/l soil): 16
- root evaluation (1-4) (Pythium ultimum; 80 mg/l soil): 4
- number of sound peas (Pythium ultimum; 80 mg/l soil): 20
- fungus development on the surface of the nutrient solution (0-5) (Penicillium digitatum; 0.002%): 1
- fungus development on the surface of the nutrient solution (0-5) (Penicillium digitatum; 0.004%): 0
- fungus development on the surface of the nutrient solution (0-5) (Botrytis cinerea; 0.002%): 2 (5 to 10% of the surface covered by the fungus turf)
- fungus development on the surface of the nutrient solution (0-5) (Botrytis cinerea; 0.004%): 0
- fungus development on the surface of the nutrient solution (0-5) (Alternaria solani; 0.002%): 1
- fungus development on the surface of the nutrient solution (0-5) (Alternaria solani; 0.004%): 0
- fungus development on the surface of the nutrient solution (0-5) (Fusarium avenaceum; 0.002%): 1
- fungus development on the surface of the nutrient solution (0-5) (Fusarium avenaceum; 0.004%): 0
- % activity (Tilletia caries [1]; 10 g active agent per 100 kg): 100%
- % activity (Tilletia caries [1]; 20 g active agent per 100 kg): 100%
- % activity (Tilletia caries [1]; 50 g active agent per 100 kg): 100%
- % activity (Piricularia oryzae; [4]): 97%
- % activity [2, 7]: 100%

Compound: CCOC(=O)c1nnc(S(=O)(=O)CC)s1 [5-ethylsulfonyl-1,3,4-thiadiazole-2-carboxylic acid-ethylester]
- fungus development on the surface of the nutrient solution (0-5) (Penicillium digitatum; 0.002%): 1
- fungus development on the surface of the nutrient solution (0-5) (Penicillium digitatum; 0.004%): 0
- fungus development on the surface of the nutrient solution (0-5) (Botrytis cinerea; 0.002%): 2 (5 to 10% of the surface covered by the fungus turf)
- fungus development on the surface of the nutrient solution (0-5) (Botrytis cinerea; 0.004%): 0
- fungus development on the surface of the nutrient solution (0-5) (Alternaria solani; 0.002%): 0
- fungus development on the surface of the nutrient solution (0-5) (Alternaria solani; 0.004%): 0
- fungus development on the surface of the nutrient solution (0-5) (Fusarium avenaceum; 0.002%): 1
- fungus development on the surface of the nutrient solution (0-5) (Fusarium avenaceum; 0.004%): 0
- % activity (Piricularia oryzae; [4]): 95%

Compound: CCS(=O)(=O)c1nnc(C(=O)NC(C)C)s1 [5-ethylsulfonyl-1,3,4-thiadiazole-2-carboxylic acid-isopropylamide]
- root evaluation (1-4) (Pythium ultimum; 20 mg/l soil): 3
- number of sound peas (Pythium ultimum; 20 mg/l soil): 16
- root evaluation (1-4) (Pythium ultimum; 40 mg/l soil): 3
- number of sound peas (Pythium ultimum; 40 mg/l soil): 15
- root evaluation (1-4) (Pythium ultimum; 80 mg/l soil): 4
- number of sound peas (Pythium ultimum; 80 mg/l soil): 16
- % activity (Tilletia caries [1]; 10 g active agent per 100 kg): 100%
- % activity (Tilletia caries [1]; 20 g active agent per 100 kg): 100%
- % activity (Tilletia caries [1]; 50 g active agent per 100 kg): 100%
- % activity (Piricularia oryzae; [4]): 99%
- % activity [2, 5]: 96%
- % activity [2, 6]: 100%
- % activity [2, 7]: 99.8%
- % activity (Plasmopara viticola; [8]): 92%
- % activity (Septoria nodorum): 86%
- % activity (Helminthosporium gram; 10 g active agent per 100 kg): 95%
- % activity (Helminthosporium gram; 20 g active agent per 100 kg): 98%
- % activity (Helminthosporium gram; 50 g active agent per 100 kg): 100%

Compound: CCCNC(=O)c1nnc(S(=O)(=O)CC)s1 [5-ethylsulfonyl-1,3,4-thiadiazole-2-carboxylic acid-propylamide]
- % activity (Tilletia caries [1]; 10 g active agent per 100 kg): 100%
- % activity (Tilletia caries [1]; 20 g active agent per 100 kg): 100%
- % activity (Tilletia caries [1]; 50 g active agent per 100 kg): 100%
- % activity [2, 5]: 95%
- % activity [2, 6]: 99.3%
- % activity [2, 7]: 100%
- % activity (Septoria nodorum): 81%
- % activity (Helminthosporium gram; 50 g active agent per 100 kg): 92%

Compound: CS(=O)(=O)c1nnc(C(=O)NCC2CCCCC2)s1 [5-methylsulfonyl-1,3,4-thiadiazole-2-carboxylic acid cyclohexylmethylamide]
- % activity (Tilletia caries [1]; 5 g active agent per 100 kg): 86%
- % activity (Tilletia caries [1]; 10 g active agent per 100 kg): 99%
- % activity (Tilletia caries [1]; 20 g active agent per 100 kg): 100%
- % activity (Piricularia oryzae; concentration of active agent 0.02 (percentages)): 60%
- % activity (Piricularia oryzae; [4]): 80%
- % activity (Tilletia caries [3]): 100%
- % activity (Plasmopara viticola; concentration of active agent 0.001 (unit not given)): 76%
- % activity (Plasmopara viticola; concentration of active agent 0.005 (unit not given)): 88%
- % activity (Plasmopara viticola; [8]): 97%

Compound: COC(=O)c1nnc(S(C)(=O)=O)s1 [5-methylsulfonyl-1,3,4-thiadiazole-2-carboxylic acid-methylester]
- fungus development on the surface of the nutrient solution (0-5) (Penicillium digitatum; 0.002%): 1
- fungus development on the surface of the nutrient solution (0-5) (Penicillium digitatum; 0.004%): 0
- fungus development on the surface of the nutrient solution (0-5) (Botrytis cinerea; 0.002%): 1
- fungus development on the surface of the nutrient solution (0-5) (Botrytis cinerea; 0.004%): 0
- fungus development on the surface of the nutrient solution (0-5) (Alternaria solani; 0.002%): 1
- fungus development on the surface of the nutrient solution (0-5) (Alternaria solani; 0.004%): 0
- fungus development on the surface of the nutrient solution (0-5) (Fusarium avenaceum; 0.002%): 0
- fungus development on the surface of the nutrient solution (0-5) (Fusarium avenaceum; 0.004%): 0

Compound: O=C1c2ccccc2C(=O)N1SC(Cl)(Cl)Cl [N-trichloromethylmercapto-phthalimide, reference compound]
- fungus development on the surface of the nutrient solution (0-5) (Penicillium digitatum; 0.002%): 4 (30 to 60% of the surface covered by the fungus turf)
- fungus development on the surface of the nutrient solution (0-5) (Penicillium digitatum; 0.004%): 4 (30 to 60% of the surface covered by the fungus turf)
- fungus development on the surface of the nutrient solution (0-5) (Botrytis cinerea; 0.002%): 4 (30 to 60% of the surface covered by the fungus turf)
- fungus development on the surface of the nutrient solution (0-5) (Botrytis cinerea; 0.004%): 3 (10 to 30% of the surface covered by the fungus turf)
- fungus development on the surface of the nutrient solution (0-5) (Alternaria solani; 0.002%): 4 (30 to 60% of the surface covered by the fungus turf)
- fungus development on the surface of the nutrient solution (0-5) (Alternaria solani; 0.004%): 4 (30 to 60% of the surface covered by the fungus turf)
- fungus development on the surface of the nutrient solution (0-5) (Fusarium avenaceum; 0.002%): 4 (30 to 60% of the surface covered by the fungus turf)
- fungus development on the surface of the nutrient solution (0-5) (Fusarium avenaceum; 0.004%): 4 (30 to 60% of the surface covered by the fungus turf)

Compound: N#Cc1c(Cl)c(Cl)c(Cl)c(C#N)c1Cl [Tetrachloroisophthalodinitrile, reference compound]
- fungus development on the surface of the nutrient solution (0-5) (Penicillium digitatum; 0.002%): 3 (10 to 30% of the surface covered by the fungus turf)
- fungus development on the surface of the nutrient solution (0-5) (Penicillium digitatum; 0.004%): 2 (5 to 10% of the surface covered by the fungus turf)
- fungus development on the surface of the nutrient solution (0-5) (Botrytis cinerea; 0.002%): 5 (60 to 100% of the surface covered by the fungus turf)
- fungus development on the surface of the nutrient solution (0-5) (Botrytis cinerea; 0.004%): 4 (30 to 60% of the surface covered by the fungus turf)
- fungus development on the surface of the nutrient solution (0-5) (Alternaria solani; 0.002%): 5 (60 to 100% of the surface covered by the fungus turf)
- fungus development on the surface of the nutrient solution (0-5) (Alternaria solani; 0.004%): 5 (60 to 100% of the surface covered by the fungus turf)
- fungus development on the surface of the nutrient solution (0-5) (Fusarium avenaceum; 0.002%): 4 (30 to 60% of the surface covered by the fungus turf)
- fungus development on the surface of the nutrient solution (0-5) (Fusarium avenaceum; 0.004%): 3 (10 to 30% of the surface covered by the fungus turf)
